Results published in PubChem BioAssay (NCI).
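Five compound concentrations were applied to cells in 96-well plates for 48 hours; endpoints were derived by simple linear interpolation of the resulting dose-response curve. TGI: concentration producing complete growth inhibition.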

Tests used:
Test in all cases: NCI anticancer screen, dose series, 48 h
SR leukemia = tested on: SR leukemia
HL-60(TB) leukemia = tested on: HL-60(TB) leukemia
HOP-62 NSCLC = tested on: HOP-62 NSCLC
EKVX NSCLC = tested on: EKVX NSCLC
KM12 colon = tested on: KM12 colon
SNB-75 CNS = tested on: SNB-75 CNS
SNB-19 CNS = tested on: SNB-19 CNS
SF-295 CNS = tested on: SF-295 CNS
CAKI-1 renal = tested on: CAKI-1 renal
HCT-116 colon = tested on: HCT-116 colon
NCI-H23 lung = tested on: NCI-H23 lung
SN12C renal = tested on: SN12C renal
XF 498 CNS = tested on: XF 498 CNS
MALME-3M melanoma = tested on: MALME-3M melanoma
A549 NSCLC = tested on: A549 NSCLC
RXF 393 renal = tested on: RXF 393 renal
UACC-257 melanoma = tested on: UACC-257 melanoma
UACC-62 melanoma = tested on: UACC-62 melanoma
HT29 colon = tested on: HT29 colon
HCT-15 colon = tested on: HCT-15 colon
DMS 114 small cell lung = tested on: DMS 114 small cell lung
SW-620 colon = tested on: SW-620 colon
SNB-78 CNS = tested on: SNB-78 CNS
RXF-631 renal = tested on: RXF-631 renal
OVCAR-8 ovarian = tested on: OVCAR-8 ovarian
MOLT-4 leukemia = tested on: MOLT-4 leukemia
LOX IMVI melanoma = tested on: LOX IMVI melanoma
U251 CNS = tested on: U251 CNS
KM20L2 colon = tested on: KM20L2 colon
UO-31 renal = tested on: UO-31 renal
OVCAR-5 ovarian = tested on: OVCAR-5 ovarian
TK-10 renal = tested on: TK-10 renal
NCI-H460 lung = tested on: NCI-H460 lung
A498 renal = tested on: A498 renal
HCC-2998 colon = tested on: HCC-2998 colon
OVCAR-4 ovarian = tested on: OVCAR-4 ovarian
RPMI-8226 leukemia = tested on: RPMI-8226 leukemia
LXFL 529 NSCLC = tested on: LXFL 529 NSCLC
SK-OV-3 ovarian = tested on: SK-OV-3 ovarian
ACHN renal = tested on: ACHN renal
DLD-1 colon = tested on: DLD-1 colon
SK-MEL-5 melanoma = tested on: SK-MEL-5 melanoma
SF-539 CNS = tested on: SF-539 CNS
CCRF-CEM leukemia = tested on: CCRF-CEM leukemia
HOP-18 NSCLC = tested on: HOP-18 NSCLC
SK-MEL-2 melanoma = tested on: SK-MEL-2 melanoma
M19-MEL melanoma = tested on: M19-MEL melanoma
K-562 leukemia = tested on: K-562 leukemia
SK-MEL-28 melanoma = tested on: SK-MEL-28 melanoma
M14 melanoma = tested on: M14 melanoma
SF-268 CNS = tested on: SF-268 CNS
786-0 renal = tested on: 786-0 renal
DMS 273 small cell lung = tested on: DMS 273 small cell lung
IGROV1 ovarian = tested on: IGROV1 ovarian
MCF7 breast = tested on: MCF7 breast
HS 578T breast = tested on: HS 578T breast
NCI/ADR-RES ovarian = tested on: NCI/ADR-RES ovarian
COLO 205 colon = tested on: COLO 205 colon
T-47D breast = tested on: T-47D breast
DU-145 prostate = tested on: DU-145 prostate
BT-549 breast = tested on: BT-549 breast
NCI-H522 lung = tested on: NCI-H522 lung
MDA-MB-231 breast = tested on: MDA-MB-231 breast
OVCAR-3 ovarian = tested on: OVCAR-3 ovarian
HOP-92 NSCLC = tested on: HOP-92 NSCLC
MDA-N = tested on: MDA-N
PC-3 prostate = tested on: PC-3 prostate
MDA-MB-435 = tested on: MDA-MB-435
NCI-H226 lung = tested on: NCI-H226 lung

## CC(C)(C)c1cc(Cc2ccc([N+](C)(C)C)cc2)c(O)c(C(C)(C)C)c1
SR leukemia
  TGI: 29.8 µM
HL-60(TB) leukemia
  TGI: 8.27 µM
HOP-62 NSCLC
  TGI: 33.5 µM
EKVX NSCLC
  TGI: > 100 µM
KM12 colon
  TGI: 29.6 µM
SNB-75 CNS
  TGI: 22.1 µM
SNB-19 CNS
  TGI: 25.9 µM
SF-295 CNS
  TGI: 67.5 µM
CAKI-1 renal
  TGI: > 100 µM
HCT-116 colon
  TGI: 31.5 µM
NCI-H23 lung
  TGI: 36.1 µM
SN12C renal
  TGI: 28.7 µM
XF 498 CNS
  TGI: 25.9 µM
MALME-3M melanoma
  TGI: 34.2 µM
A549 NSCLC
  TGI: > 100 µM
RXF 393 renal
  TGI: 38.4 µM
UACC-257 melanoma
  TGI: 31.7 µM
UACC-62 melanoma
  TGI: 27.9 µM
HT29 colon
  TGI: 32.7 µM
HCT-15 colon
  TGI: > 100 µM
DMS 114 small cell lung
  TGI: 20.2 µM
SW-620 colon
  TGI: 59.2 µM
SNB-78 CNS
  TGI: 31.3 µM
RXF-631 renal
  TGI: > 100 µM
OVCAR-8 ovarian
  TGI: 35.9 µM
MOLT-4 leukemia
  TGI: 26.1 µM
LOX IMVI melanoma
  TGI: 30.6 µM
U251 CNS
  TGI: 25.4 µM
KM20L2 colon
  TGI: 74.8 µM
UO-31 renal
  TGI: > 100 µM
OVCAR-5 ovarian
  TGI: 59.7 µM
TK-10 renal
  TGI: 78.4 µM
NCI-H460 lung
  TGI: 37.9 µM
A498 renal
  TGI: > 100 µM
HCC-2998 colon
  TGI: 29.9 µM
OVCAR-4 ovarian
  TGI: > 100 µM
RPMI-8226 leukemia
  TGI: 31.9 µM
LXFL 529 NSCLC
  TGI: 27.1 µM
SK-OV-3 ovarian
  TGI: 95.1 µM
ACHN renal
  TGI: > 100 µM
DLD-1 colon
  TGI: > 100 µM
SK-MEL-5 melanoma
  TGI: 22.9 µM
SF-539 CNS
  TGI: 30.5 µM
CCRF-CEM leukemia
  TGI: 29.1 µM
HOP-18 NSCLC
  TGI: 47.3 µM
SK-MEL-2 melanoma
  TGI: 30.2 µM
M19-MEL melanoma
  TGI: 26.6 µM
K-562 leukemia
  TGI: 28.1 µM
SK-MEL-28 melanoma
  TGI: 25 µM
M14 melanoma
  TGI: 40.9 µM
SF-268 CNS
  TGI: 28.5 µM
786-0 renal
  TGI: 57.7 µM
DMS 273 small cell lung
  TGI: 22.2 µM
IGROV1 ovarian
  TGI: 28.1 µM

## Cc1ccccc1C1=C/C(=C(\SS/C(C(=O)c2ccc(OCC(=O)O)c(Cl)c2Cl)=C2\C=C(c3ccccc3C)SS2)C(=O)c2ccc(OCC(=O)O)c(Cl)c2Cl)SS1
SR leukemia
  TGI: 57.3 µM
MCF7 breast
  TGI: > 90.7 µM
HL-60(TB) leukemia
  TGI: 7.65 µM
HOP-62 NSCLC
  TGI: > 100 µM
EKVX NSCLC
  TGI: > 96.5 µM
KM12 colon
  TGI: 51 µM
SNB-75 CNS
  TGI: 84 µM
SNB-19 CNS
  TGI: > 84.5 µM
SF-295 CNS
  TGI: 87 µM
CAKI-1 renal
  TGI: 72.9 µM
HCT-116 colon
  TGI: 56.2 µM
NCI-H23 lung
  TGI: 55.7 µM
SN12C renal
  TGI: 50.6 µM
XF 498 CNS
  TGI: 42.6 µM
HS 578T breast
  TGI: 51.9 µM
NCI/ADR-RES ovarian
  TGI: > 100 µM
MALME-3M melanoma
  TGI: > 87.6 µM
A549 NSCLC
  TGI: > 94.2 µM
COLO 205 colon
  TGI: 47.5 µM
RXF 393 renal
  TGI: 55.2 µM
T-47D breast
  TGI: 49 µM
UACC-257 melanoma
  TGI: 71.1 µM
UACC-62 melanoma
  TGI: 43.5 µM
HT29 colon
  TGI: 83.7 µM
HCT-15 colon
  TGI: 59.4 µM
DMS 114 small cell lung
  TGI: 24.7 µM
SW-620 colon
  TGI: 67.7 µM
DU-145 prostate
  TGI: > 100 µM
BT-549 breast
  TGI: > 74.1 µM
NCI-H522 lung
  TGI: 16.8 µM
SNB-78 CNS
  TGI: 51.4 µM
RXF-631 renal
  TGI: > 100 µM
OVCAR-8 ovarian
  TGI: 77.1 µM
MOLT-4 leukemia
  TGI: 47.6 µM
LOX IMVI melanoma
  TGI: 21.1 µM
U251 CNS
  TGI: 35.9 µM
KM20L2 colon
  TGI: > 100 µM
UO-31 renal
  TGI: 51.1 µM
OVCAR-5 ovarian
  TGI: > 100 µM
TK-10 renal
  TGI: > 85.1 µM
NCI-H460 lung
  TGI: 60.2 µM
MDA-MB-231 breast
  TGI: 47.5 µM
OVCAR-3 ovarian
  TGI: 50.6 µM
A498 renal
  TGI: 92.6 µM
HOP-92 NSCLC
  TGI: 13.8 µM
HCC-2998 colon
  TGI: > 100 µM
OVCAR-4 ovarian
  TGI: 64.3 µM
RPMI-8226 leukemia
  TGI: 51.2 µM
LXFL 529 NSCLC
  TGI: 16.5 µM
SK-OV-3 ovarian
  TGI: > 100 µM
MDA-N
  TGI: > 100 µM
ACHN renal
  TGI: 65.4 µM
DLD-1 colon
  TGI: > 67.2 µM
SK-MEL-5 melanoma
  TGI: 58.6 µM
SF-539 CNS
  TGI: 44.9 µM
PC-3 prostate
  TGI: 27.4 µM
CCRF-CEM leukemia
  TGI: 32.2 µM
HOP-18 NSCLC
  TGI: 23.3 µM
MDA-MB-435
  TGI: > 100 µM
SK-MEL-2 melanoma
  TGI: 42.3 µM
NCI-H226 lung
  TGI: 42.1 µM
M19-MEL melanoma
  TGI: > 56.4 µM
K-562 leukemia
  TGI: 41.6 µM
SK-MEL-28 melanoma
  TGI: 69 µM
M14 melanoma
  TGI: 49.2 µM
SF-268 CNS
  TGI: 45.9 µM
786-0 renal
  TGI: > 70 µM
DMS 273 small cell lung
  TGI: 36.7 µM
IGROV1 ovarian
  TGI: 38.5 µM
